Reference: ChEMBL document CHEMBL5465560, “Selectivity Literature for EUbOPEN Chemogenomic Library” (2024)

Key:
[1] = molecular target: T1, Serine/threonine-protein kinase TAO2 (Homo sapiens) (UniProt Q9UL54); experiment: Selectivity interaction (KinomeScan (DiscoverX)) EUB0000595a TAOK2; settings: at 10 µM
T1 sequence (whole entry): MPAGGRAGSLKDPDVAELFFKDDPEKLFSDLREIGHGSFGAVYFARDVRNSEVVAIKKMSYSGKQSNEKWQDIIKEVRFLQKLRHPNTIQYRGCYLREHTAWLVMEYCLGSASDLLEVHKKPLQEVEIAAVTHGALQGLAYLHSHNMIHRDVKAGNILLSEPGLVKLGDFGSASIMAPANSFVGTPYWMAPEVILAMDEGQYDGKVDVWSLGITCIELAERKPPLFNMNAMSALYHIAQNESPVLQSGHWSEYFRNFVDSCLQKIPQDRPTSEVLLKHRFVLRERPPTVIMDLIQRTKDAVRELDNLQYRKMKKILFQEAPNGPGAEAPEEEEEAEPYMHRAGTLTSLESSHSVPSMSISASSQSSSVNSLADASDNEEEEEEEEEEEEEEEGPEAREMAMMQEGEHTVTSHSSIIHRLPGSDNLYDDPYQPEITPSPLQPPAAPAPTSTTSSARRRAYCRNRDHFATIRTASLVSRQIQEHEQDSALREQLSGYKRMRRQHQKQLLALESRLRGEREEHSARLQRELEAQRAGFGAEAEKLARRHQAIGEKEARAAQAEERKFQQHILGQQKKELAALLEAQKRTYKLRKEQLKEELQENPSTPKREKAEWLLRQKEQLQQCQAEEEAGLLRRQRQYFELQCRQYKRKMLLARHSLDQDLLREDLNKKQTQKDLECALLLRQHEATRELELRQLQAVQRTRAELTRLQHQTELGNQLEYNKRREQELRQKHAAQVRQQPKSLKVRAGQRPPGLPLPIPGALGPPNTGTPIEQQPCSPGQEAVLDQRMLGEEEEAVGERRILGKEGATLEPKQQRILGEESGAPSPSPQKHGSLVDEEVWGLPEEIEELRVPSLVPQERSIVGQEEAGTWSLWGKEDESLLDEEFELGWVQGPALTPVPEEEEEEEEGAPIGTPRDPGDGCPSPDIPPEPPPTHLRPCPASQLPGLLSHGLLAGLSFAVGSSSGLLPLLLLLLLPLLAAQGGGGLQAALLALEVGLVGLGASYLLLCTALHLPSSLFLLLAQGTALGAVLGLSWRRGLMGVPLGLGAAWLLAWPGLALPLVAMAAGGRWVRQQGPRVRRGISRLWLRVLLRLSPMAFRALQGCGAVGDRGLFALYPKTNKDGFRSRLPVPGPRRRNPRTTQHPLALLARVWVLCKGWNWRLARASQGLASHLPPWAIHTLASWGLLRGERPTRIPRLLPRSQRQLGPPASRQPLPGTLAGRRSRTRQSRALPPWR

[2] = molecular target: DNA (cytosine-5)-methyltransferase 3B (Homo sapiens) (UniProt Q9UBC3); experiment: Selectivity interaction (Methyltransferase screen (radiometric assays, panel of 8 PRMTs, 21 protein lysine methyltransferases, 3 DNA methyltransferases, and one RNA methyltransferase)) EUB0000271b DNMT3B
[3] = molecular target: Calcium/calmodulin-dependent protein kinase kinase 1 (Homo sapiens) (UniProt Q8N5S9); experiment: Selectivity interaction (ProQinase) EUB0000171b CAMKK1
Sequence of Calcium/calmodulin-dependent protein kinase kinase 1 (Homo sapiens) (Q8N5S9 whole entry, looked up): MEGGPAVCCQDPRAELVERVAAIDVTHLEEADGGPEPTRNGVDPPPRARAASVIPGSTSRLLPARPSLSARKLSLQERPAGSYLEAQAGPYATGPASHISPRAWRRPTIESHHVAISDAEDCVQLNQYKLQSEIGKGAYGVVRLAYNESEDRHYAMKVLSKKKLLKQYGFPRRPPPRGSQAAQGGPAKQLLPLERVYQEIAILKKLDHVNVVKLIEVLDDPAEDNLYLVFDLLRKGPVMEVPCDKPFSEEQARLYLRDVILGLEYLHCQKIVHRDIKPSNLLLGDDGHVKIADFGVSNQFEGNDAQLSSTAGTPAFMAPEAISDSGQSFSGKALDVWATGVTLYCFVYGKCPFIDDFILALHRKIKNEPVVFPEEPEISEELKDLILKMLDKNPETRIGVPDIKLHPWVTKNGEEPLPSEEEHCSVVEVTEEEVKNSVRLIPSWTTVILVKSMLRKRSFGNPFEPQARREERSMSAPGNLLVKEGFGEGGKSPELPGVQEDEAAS

[4] = molecular target: Myosin light chain kinase 2, skeletal/cardiac muscle (Homo sapiens) (UniProt Q9H1R3); experiment: Selectivity interaction (KinomeScan (DiscoverX)) EUB0000607a MYLK2; settings: at 10 µM
Sequence of Myosin light chain kinase 2, skeletal/cardiac muscle (Homo sapiens) (Q9H1R3 whole entry): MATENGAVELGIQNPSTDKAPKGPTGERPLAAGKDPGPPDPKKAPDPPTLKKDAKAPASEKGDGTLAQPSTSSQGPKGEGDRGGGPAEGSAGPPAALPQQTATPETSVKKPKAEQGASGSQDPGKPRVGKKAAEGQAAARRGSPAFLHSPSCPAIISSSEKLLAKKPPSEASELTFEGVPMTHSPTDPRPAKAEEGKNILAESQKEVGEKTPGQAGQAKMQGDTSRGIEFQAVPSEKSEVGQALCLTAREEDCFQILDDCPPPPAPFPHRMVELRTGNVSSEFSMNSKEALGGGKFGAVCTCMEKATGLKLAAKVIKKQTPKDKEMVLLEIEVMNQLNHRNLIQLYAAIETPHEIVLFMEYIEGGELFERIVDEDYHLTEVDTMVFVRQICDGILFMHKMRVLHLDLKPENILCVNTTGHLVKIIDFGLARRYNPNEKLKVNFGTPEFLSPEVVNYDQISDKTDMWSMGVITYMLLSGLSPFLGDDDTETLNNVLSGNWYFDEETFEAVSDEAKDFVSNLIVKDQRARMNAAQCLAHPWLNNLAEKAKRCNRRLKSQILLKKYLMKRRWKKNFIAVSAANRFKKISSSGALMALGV

[5] = molecular target: Cyclin-dependent kinase 2/cyclin A (Homo sapiens) (UniProt P24941+P20248+P78396); experiment: Selectivity interaction (SelectScreen profiling (Invitrogen)) EUB0000607a CDK2; assay type: protein-complex assay; settings: at 2 µM
[6] = molecular target: T2, cGMP-dependent protein kinase 1 (Homo sapiens) (UniProt Q13976); experiment: Selectivity interaction (KinomeScan (DiscoverX)) EUB0000618a PRKG1; settings: at 10 µM
T2 sequence (whole entry): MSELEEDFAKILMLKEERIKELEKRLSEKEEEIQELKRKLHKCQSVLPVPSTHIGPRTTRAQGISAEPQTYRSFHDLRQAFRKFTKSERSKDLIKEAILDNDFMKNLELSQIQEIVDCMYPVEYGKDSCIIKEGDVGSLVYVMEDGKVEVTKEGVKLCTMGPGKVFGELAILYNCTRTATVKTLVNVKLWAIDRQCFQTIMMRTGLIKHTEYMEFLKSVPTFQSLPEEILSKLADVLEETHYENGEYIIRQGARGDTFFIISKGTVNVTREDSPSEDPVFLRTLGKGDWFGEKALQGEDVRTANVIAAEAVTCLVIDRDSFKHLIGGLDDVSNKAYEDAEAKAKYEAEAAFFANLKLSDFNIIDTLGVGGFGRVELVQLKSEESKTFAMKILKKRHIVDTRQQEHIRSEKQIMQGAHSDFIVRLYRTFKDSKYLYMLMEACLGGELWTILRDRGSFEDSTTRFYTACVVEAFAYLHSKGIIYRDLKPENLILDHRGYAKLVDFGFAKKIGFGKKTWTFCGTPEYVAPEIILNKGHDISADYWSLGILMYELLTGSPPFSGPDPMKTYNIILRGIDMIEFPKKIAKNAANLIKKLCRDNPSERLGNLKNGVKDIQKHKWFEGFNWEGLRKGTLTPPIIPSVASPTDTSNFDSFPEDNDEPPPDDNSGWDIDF

Histamine H1 receptor = Histamine H1 receptor (Homo sapiens, UniProt P35367); experiment: Selectivity interaction (Panel of kinases, GPCRs, ion channels and transporters (enzymatic assay)) EUB0000266bCl HRH1
Sequence of Histamine H1 receptor (P35367 whole entry): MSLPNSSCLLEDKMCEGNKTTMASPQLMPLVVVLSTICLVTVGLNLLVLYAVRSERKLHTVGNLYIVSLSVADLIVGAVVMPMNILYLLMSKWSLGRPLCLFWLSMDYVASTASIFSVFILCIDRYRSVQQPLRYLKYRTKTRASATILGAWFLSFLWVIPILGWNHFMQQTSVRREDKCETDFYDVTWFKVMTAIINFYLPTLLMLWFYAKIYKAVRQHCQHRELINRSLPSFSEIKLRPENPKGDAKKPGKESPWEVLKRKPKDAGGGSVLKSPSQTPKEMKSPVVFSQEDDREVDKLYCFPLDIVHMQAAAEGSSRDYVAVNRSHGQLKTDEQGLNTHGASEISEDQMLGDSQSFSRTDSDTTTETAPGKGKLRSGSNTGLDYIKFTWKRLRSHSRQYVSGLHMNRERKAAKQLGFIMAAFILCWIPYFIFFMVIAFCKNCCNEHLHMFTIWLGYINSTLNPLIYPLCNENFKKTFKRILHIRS

[7] = molecular target: T3, Tyrosine-protein kinase ZAP-70 (Homo sapiens) (UniProt P43403); settings: at 10 µM
T3 sequence (whole entry): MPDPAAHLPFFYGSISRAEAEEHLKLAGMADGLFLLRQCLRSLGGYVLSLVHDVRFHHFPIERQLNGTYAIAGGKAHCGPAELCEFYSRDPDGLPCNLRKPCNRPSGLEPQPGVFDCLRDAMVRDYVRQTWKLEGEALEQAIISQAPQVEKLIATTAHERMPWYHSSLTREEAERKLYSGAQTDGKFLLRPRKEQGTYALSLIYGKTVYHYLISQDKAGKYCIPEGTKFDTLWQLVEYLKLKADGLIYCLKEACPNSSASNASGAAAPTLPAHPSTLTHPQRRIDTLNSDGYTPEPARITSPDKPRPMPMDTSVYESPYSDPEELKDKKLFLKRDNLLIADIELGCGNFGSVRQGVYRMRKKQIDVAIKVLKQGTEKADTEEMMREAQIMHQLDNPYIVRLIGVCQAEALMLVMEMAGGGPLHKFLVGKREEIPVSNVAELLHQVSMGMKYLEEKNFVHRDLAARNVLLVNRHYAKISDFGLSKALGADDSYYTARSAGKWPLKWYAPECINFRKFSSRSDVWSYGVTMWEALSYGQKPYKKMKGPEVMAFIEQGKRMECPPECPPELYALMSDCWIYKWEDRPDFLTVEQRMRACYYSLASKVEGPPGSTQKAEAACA

Compound: COCC(=O)NC/C=C/c1ccc2ncnc(Nc3ccc(Oc4ccc(C)nc4)c(C)c3)c2c1 [CP-724714]
- % of control [1]: 100%

Compound: Cc1cc(C)cc([C@@H]2c3cc(C)ccc3NC(=O)CN2C(=O)c2ccc(Br)s2)c1
- % of activity ([2]; at 1 µM): 103%
- % of activity ([2]; at 10 µM): 98.3%

Compound: C=CC(=O)Nc1cccc(C(=O)Nc2ccc(Nc3cc(-c4[nH]c(SC)nc4C)ccn3)cc2)c1
- % of control ([3]; at 1 µM): 98%
- % of control ([3]; at 5 µM): 108%

Compound: CNC(=O)Nc1ccc(-c2nc(N3CC4CCC(C3)O4)c3cnn(C4CCC5(CC4)OCCO5)c3n2)cc1
- % of control [4]: 100%
- % of inhibition [5]: 0%

Compound: O[C@H]1CC[C@H](Nc2ncc3nc(Nc4c(F)cc(F)cc4F)n([C@H]4CCOC4)c3n2)CC1
- % of control [6]: 100%

Compound: CCn1c(-c2nc3cc(C(=O)N4CCCC(N)C4)ccc3n2C)cc2ccccc21 (stereo not given)
- pXC50 (Histamine H1 receptor): < 4.4 M

Compound: CCN(CC)CCCCNc1ncc2cc(-c3cc(OC)cc(OC)c3)c(NC(=O)NC(C)(C)C)nc2n1
- % of control [7]: 100%
